Assay results taken from patent US20050080140A1, “Method for treating or preventing inflammatory disorders” (AnGes MG, Inc., priority 2003, published 2005).
“Also recorded” adds a separate entry of the source.

Experiments:
PPRE (PPARδ activation) = experiment: PPREx3-luciferase reporter assay; format: cell-based, human; conditions: HUVEC, 24 h
Procedure: Primary cultured human umbilical vein endothelial cells (HUVEC) and human aortic endothelial cells (HAEC) were obtained from Kurabo Co. Ltd. (Tokyo, Japan) and were cultured in EGM-2 growth medium supplemented with 2% fetal bovine serum (FBS) and a mixture of growth factors according to the supplier's instructions. Total RNA from the cells in culture was prepared with Isogen (Nippon Gene, Tokyo, Japan). Human embryonic kidney HEK-293 cells were cultured in DMEM containing 10% FBS, 2 mM L-glutamine, 100 U/ml penicillin and […] streptomycin as described previously (Hatae et al., J. Biol. Chem. (2001) 276: 46260-7). […] HEK-293 cells were transfected with DNA using lipofectAMINE (Invitrogen, Carlsbad, Calif.) as described previously (Hatae et al., J. Biol. Chem. (2001) 276: 46260-7). Human vascular endothelial cells were transfected with TransIT LT-1 (PanVera Co., Madison, Wis.). Transfections were performed at a ratio of 1 μg of DNA to 3.0 μl of the reagents, and cells were incubated in serum-free EGM-2 at 37° C. for 5 h. Subsequently, cells were grown in fresh EGM-2 containing 2% FBS and a mixture of growth factors for 12 h before analysis. For reporter assay, human vascular endothelial cells (1.2×10^4 cells/cm^2) were cotransfected with 0.2 μg of the PPREx3-luciferase reporter vector and 0.1 μg of β-galactosidase expression vector by use of TransIT LT-1. After 17 h of transfection, cells were washed with PBS, incubated in EGM-2 containing 2% FBS and cPGI (0-100 μM) for 24 h at 37° C., and subjected to luciferase assay as described previously (Hatae et al., J. Biol. Chem. (2001) 276: 46260-7). The luciferase activity of the extract was normalized to β-galactosidase activity.

IL-13 = IL-13 ELISA of culture medium of human vascular endothelial cells; format: cell-based; conditions: 24 h; for endogenous IL-13 expression in PGI2-deprived cells: HUVEC treated with PGIS siRNA, cPGI 10 μM, FIG. 6C
Procedure: Human vascular endothelial cells (1.2×10^4 cells/cm^2) were cultured in EGM-2 containing 2% FBS and several concentrations of cPGI with or without TNF-α for 24 h. Incubation media were collected and stored at −80° C. before assay. Amounts of IL-13 were measured with human IL-13 ELISA system (Amersham Pharmacia Biotech, Buckinghamshire, UK) and amounts of PGI2 were measured as the amounts of 6-keto-PGI1α, a stable metabolite of PGI2, with 6-keto-PGI1α ELISA kit (Cayman Chemical Co., Ann Arbor, Mich.) according to the manufacturers' instructions.
siRNA duplexes with the following sense and antisense sequences were made: PGIS1, 5′-[…]-3′ (SEQ ID NO: 12; sense) and 5′-[…]-3′ (SEQ ID NO: 13; antisense); PGIS2, 5′-[…]-3′ (SEQ ID NO: 14; sense) and 5′-[…]-3′ (SEQ ID NO: 15; antisense); PGIS3, 5′-[…]-3′ (SEQ ID NO: 16; sense) and 5′-[…] (SEQ ID NO: 17; antisense); and PGIS4, 5′-[…]-3′ (SEQ ID NO:, 18; sense) and 5′-[…]-3′ (SEQ ID NO: 19; antisense). siRNAs were synthesized and annealed by Dharmacon Research Inc. (Lafayette, CO). Control non-silencing siRNA, a duplex of sense (5′-UUCUCCGAACGUGUCACGUdTdT-3′; SEQ ID NO: 20) and antisense (5′-ACGUGACACGUUCGGAGAAdTdT-3′; SEQ ID NO: 21) sequences, was purchase from Qiagen (Valencia, Calif.). The cells were initially transfected with 200 pmol per well of the annealed RNA mixture or the same amount of control siRNA using LipofectAMINE2000 (Invitrogen), and 12 h later secondly transfected with the same amount of siRNAs using HVJ-liposome transfection kit (GenomeONE; Ishihara Sangyo, Osaka, Japan) according to the manufacturers' instructions. The cells were retransfected with the siRNAs every 3 days using LipofectAMINE2000 and HVJ-liposome, and used for analyses 10 days after transfection. Microsomal fractions of the cells were prepared and analyzed by immunoblotting with anti-PGIS P4 polyclonal antibody as described previously (Hatae et al., J. Biol. Chem. (2001) 276: 46260-7). The cells treated with siRNAs for 10 days were cultured in fresh EGM-2 containing 2% FBS and TNF-α (0, 10 ng/ml). with or without cPGI (10 μM) for 24 h. The incubation media were collected, and amounts of 6-keto-PGI1α or IL-13 were measured with ELISA kit.

IL-13 gene = experiment: RT-PCR analysis of IL-13 mRNA; format: cell-based, human; conditions: HUVEC, 10 μM cPGI, 12 h, FIG. 1A
Procedure: For analysis of IL-13, human vascular endothelial cells (1.2×10^4 cells/cm^2) were stimulated with cPGI (10 μM) for 12 h, and total RNA was prepared from stimulated cells with Isogen (Nippon Gene). For analysis of COX-2, human vascular endothelial cells (1.2×10^4 cells/cm^2) were pretreated with TNF-α (1 ng/ml) and IL-1b (20 ng/ml) for 1 h, and then treated with cPGI (0, 10 μM), anti-human IL-13 monoclonal antibody (0, 0.5 μg/ml) and control IgG (0, 0.5 μg/ml) for 12 h to prepare total RNA. The total RNA (0.5 μg) was used for analysis by SuperScript RT-PCR system (Invitrogen) according to the manufacturer's instructions. The oligonucleotide primers used were IL-13-s (5′-[…]-3′ (SEQ ID NO: 6); sense) and IL-13-as (5′-[…]-3′ (SEQ ID NO: 7); antisense) for human IL-13, β-actin-s (5′-[…]-3′ (SEQ ID NO: 8); sense) and β-actin-as (5′-[…]-3′ (SEQ ID NO: 9); antisense) for human β-actin, and COX-2-s (5′-[…]-3′ (SEQ ID NO: 10); sense) and COX-2-as (5′-[…]-3′ (SEQ ID NO: 11); antisense) for human COX-2. For each PCR amplification, 1 μl of cDNA was used in a 50 μl reaction. Reverse transcription-PCR (RT-PCR) for β-actin (25 cycles) was used as an internal control for mRNA abundance. For IL-13 and COX-2 genes, the number of cycles ranged from 25 to 45. […] Samples were normalized based on equivalent expression of β-actin.

CCCCC[C@H](O)/C=C/[C@@H]1[C@H]2C/C(=C/CCCC(=O)O)C[C@H]2C[C@H]1O [cPGI, carbaprostacyclin]
luciferase activity of PPRE reporter, exogenous cPGI added to TNF-α (PPRE (PPARδ activation); TNF-α 0-10 ng/ml with cPGI 0, 2 or 10 μM, dose-dependent, FIG. 4B): enhanced | luciferase activity of reporter vector containing PPRE (PPRE (PPARδ activation); cPGI 0, 1, 10 and 100 μM, FIG. 1C): dose-dependent | endogenous IL-13 expression in PGI2-deprived cells (IL-13): significantly increased | endogenous IL-13 expression in PGI2-deprived cells (IL-13; listed as carbaprostacyclin): significantly induced | production of IL-13, exogenous cPGI added to TNF-α (IL-13; HUVEC, TNF-α 0-10 ng/ml with cPGI 0, 2 or 10 μM, dose-dependent, FIG. 4C): enhanced | IL-13 protein in the culture medium (ELISA) (IL-13; HUVEC, cPGI 0, 1, 10 and 100 μM, FIG. 1B): detectable; also recorded: dose-dependent | IL-13 mRNA expression (RT-PCR) (IL-13 gene): apparent induction
